The nature of the series: Enzymatic hydrolysis stability. Type of series: in vitro ADME. The following applies: Tritirachium album (Parengyodontium album), peptide 8.0 mg/mL and proteinase K 2.0 mg/mL in PBS mixed 0.5 mL + 0.5 mL, 37 °C, HPLC peak area, mean n = 3. How it is done:
Peptides and proteinase K were dissolved in PBS and then diluted to 8.0 mg mL^−1 and 2.0 mg mL^−1, respectively. For each peptide tested, 0.5 mL of peptide solution was mixed with 0.5 mL proteinase K solution and then incubated in a water bath at 37 °C. After 0, 5, 15, 30, 60, and 120 min, a 10 µL sample of the mixture was withdrawn and 30 µL of a precipitator solution (1.0 mL of TFA in 9.0 mL acetonitrile) was added. Each sample was subsequently vortexed for 5 s and centrifuged for 10 min at 4 °C. Supernatants were analyzed by HPLC, with the peak area of each peptide recorded and used to calculate hydrolysis efficiency.

Molecules are shown by their SMILES. Where a SMILES comes first, the peptide text is derived from it. [ ]: non-standard residue; d: D form. The star is where a group is joined. Stearoyl = CCCCCCCCCCCCCCCCCC(=O)*

`CCCCCCCCCCCCCCCCCC(=O)N[C@H](CS)C(=O)N[C@H](CC(C)C)C(=O)N[C@H](CC(C)C)C(=O)N[C@H](CCCCN)C(=O)N[C@H](CCCCN)C(=O)N[C@H](CC(C)C)C(=O)N[C@H](CC(C)C)C(=O)N[C@H](CCCCN)C(=O)N[C@H](CCCCN)C(=O)N[C@H](CC(C)C)C(=O)N[C@H](CC(C)C)C(=O)N[C@H](CCCCN)C(=O)N[C@H](CCCCN)C(=O)N[C@H](CS)C(=O)N[C@H](Cc1c[nH]cn1)C(=O)N[C@H](Cc1c[nH]cn1)C(=O)N[C@H](Cc1c[nH]cn1)C(=O)N[C@H](Cc1c[nH]cn1)C(=O)N[C@H](Cc1c[nH]cn1)C(=O)N[C@H](Cc1c[nH]cn1)C(=O)N[C@H](CCCNC(=N)N)C(=O)N[C@H](CCCNC(=N)N)C(=O)N[C@H](CCCNC(=N)N)C(=O)N[C@H](CCCNC(=N)N)C(=O)N[C@H](CCCNC(=N)N)C(=O)N[C@H](CCCNC(=N)N)C(=O)N[C@H](CCCNC(=N)N)C(=O)N[C@H](CCCNC(=N)N)C(=O)N[C@H](CCCNC(=N)N)C(N)=O` [P-04] (Stearoyl-[dC][dL][dL][dK][dK][dL][dL][dK][dK][dL][dL][dK][dK][dC][dH][dH][dH][dH][dH][dH][dR][dR][dR][dR][dR][dR][dR][dR][dR]-NH2): the share remaining at 1 h, 4 mg/mL (60 min, read-out: peptide remaining after incubation with proteinase K) is 70%.

With `CCCCCCCCCCCCCCCCCC(=O)N[C@@H](CS)C(=O)N[C@@H](CC(C)C)C(=O)N[C@@H](CC(C)C)C(=O)N[C@@H](CCCCN)C(=O)N[C@@H](CCCCN)C(=O)N[C@@H](CC(C)C)C(=O)N[C@@H](CC(C)C)C(=O)N[C@@H](CCCCN)C(=O)N[C@@H](CCCCN)C(=O)N[C@@H](CC(C)C)C(=O)N[C@@H](CC(C)C)C(=O)N[C@@H](CCCCN)C(=O)N[C@@H](CCCCN)C(=O)N[C@@H](CS)C(=O)N[C@@H](Cc1c[nH]cn1)C(=O)N[C@@H](Cc1c[nH]cn1)C(=O)N[C@@H](Cc1c[nH]cn1)C(=O)N[C@@H](Cc1c[nH]cn1)C(=O)N[C@@H](Cc1c[nH]cn1)C(=O)N[C@@H](Cc1c[nH]cn1)C(=O)N[C@@H](CCCNC(=N)N)C(=O)N[C@@H](CCCNC(=N)N)C(=O)N[C@@H](CCCNC(=N)N)C(=O)N[C@@H](CCCNC(=N)N)C(=O)N[C@@H](CCCNC(=N)N)C(=O)N[C@@H](CCCNC(=N)N)C(=O)N[C@@H](CCCNC(=N)N)C(=O)N[C@@H](CCCNC(=N)N)C(=O)N[C@@H](CCCNC(=N)N)C(N)=O` [P-03] (Stearoyl-CLLKKLLKKLLKKCHHHHHHRRRRRRRRR-NH2), the metabolised at 1 h, 4 mg/mL (within 60 min, read-out: peptide degraded by proteinase K) came to 82%.
